Test results as given in the NIST ThermoML archive (doi:10.1021/je5002126).

Assays:
[1] = xn = mol fraction of the nth substance listed; settings: for electrical conductivity / viscosity / mass density: 101 kPa, Liquid; for electrical conductivity: Alternating current cell with electrodes; for viscosity: Concentric cylinders viscometry; for mass density: Vibrating tube method; for surface tension liquid-gas: Ring tensiometer
[2] = refractive index (Na D-line) (dimensionless); xn = mol fraction of the nth substance listed; settings: 101 kPa, Liquid, Standard Abbe refractometry

CCCC[N+](CCCC)(CCCC)CCCC.[Cl-] [tetrabutylammonium chloride] + OCC(O)CO
Settings	electrical conductivity, [1] [S/m]	mass density, [1] [kg/m3]	refractive index, [2]	surface tension liquid-gas, [1] [mN/m]	viscosity, [1] [mPa·s]
293.15 K, x1 = 0.167	0.0162	1040	1.4781	–	1100
293.15 K, x1 = 0.2	0.0192	1029	1.4776	–	950
293.15 K, x1 = 0.25	0.017	1014	1.4802	–	1170
303.15 K, x1 = 0.167	0.0307	1034	1.4754	47.1	541.3
303.15 K, x1 = 0.2	0.0358	1023	1.4747	46.7	476.1
303.15 K, x1 = 0.25	0.0309	1008	1.4774	46	580
313.15 K, x1 = 0.167	0.0492	1027	1.4726	46.2	261
313.15 K, x1 = 0.2	0.0525	1017	1.4718	45.9	225
313.15 K, x1 = 0.25	0.0485	1001	1.4745	44.9	293.3
323.15 K, x1 = 0.167	0.0788	1020	1.4697	45.5	137.3
323.15 K, x1 = 0.2	0.0863	1010	1.4687	44.9	115.7
323.15 K, x1 = 0.25	0.0781	995	1.4716	44.1	157
333.15 K, x1 = 0.167	0.114	1014	1.4668	45	78.4
333.15 K, x1 = 0.2	0.131	1004	1.4658	44.1	64.7
333.15 K, x1 = 0.25	0.117	988	1.4685	43.4	90.7
343.15 K, x1 = 0.167	0.141	1007	1.4638	44.2	47.6
343.15 K, x1 = 0.2	0.182	997	1.4626	43.5	41.9
343.15 K, x1 = 0.25	0.151	982	1.4652	42.7	56.7
353.15 K, x1 = 0.167	0.222	1000	1.4607	43.5	32
353.15 K, x1 = 0.2	0.264	991	1.4603	42.9	25
353.15 K, x1 = 0.25	0.24	976	1.462	41.9	36.7
